From PubChem BioAssay (NCI)
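Results reflect a 48-hour exposure of cells in 96-well plates to compound at five concentrations. Abbreviation: GI50, concentration required for 50% inhibition of growth. The concentration for full growth arrest is given as TGI.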

Columns and labels:
Experiment in all cases: NCI-60 cell line screen, 48 h
SNB-75 CNS = test system: SNB-75 CNS
SW-620 colon = test system: SW-620 colon
SK-OV-3 ovarian = test system: SK-OV-3 ovarian
A549 NSCLC = test system: A549 NSCLC
KM12 colon = test system: KM12 colon
UACC-62 melanoma = test system: UACC-62 melanoma
HCC-2998 colon = test system: HCC-2998 colon
COLO 205 colon = test system: COLO 205 colon
OVCAR-4 ovarian = test system: OVCAR-4 ovarian
SF-539 CNS = test system: SF-539 CNS

Row | Compound | TGI (SNB-75 CNS) [µM] | TGI (SW-620 colon) [µM] | TGI (SK-OV-3 ovarian) [µM] | TGI (A549 NSCLC) [µM] | TGI (KM12 colon) [µM] | TGI (UACC-62 melanoma) [µM] | TGI (HCC-2998 colon) [µM] | TGI (COLO 205 colon) [µM] | TGI (OVCAR-4 ovarian) [µM] | GI50 (SNB-75 CNS) [µM] | GI50 (SW-620 colon) [µM] | GI50 (KM12 colon) [µM] | GI50 (UACC-62 melanoma) [µM] | GI50 (HCC-2998 colon) [µM] | GI50 (COLO 205 colon) [µM] | GI50 (OVCAR-4 ovarian) [µM] | TGI (SF-539 CNS) [µM] | GI50 (SK-OV-3 ovarian) [µM] | GI50 (A549 NSCLC) [µM] | GI50 (SF-539 CNS) [µM]
1 | COc1c2c(c3c(c1CCC(=O)O)OC(C)(C)C=C3)OC(C)(C)C=C2 | > 100 | > 100 | > 100 | > 100 | > 100 | > 100 | > 100 | > 100 | > 100 | – | – | – | – | – | – | – | – | – | – | –
2 | O=C(Cn1ccc(=O)[nH]c1=O)Nc1ccc(C(=O)O)c(O)c1 | > 100 | > 100 | – | > 100 | > 100 | > 100 | – | > 100 | > 100 | – | – | – | – | – | – | – | – | – | – | –
3 | Cc1ccc(/C=C2\CN(C(=O)OC(C)(C)C)C/C(=C\c3ccc(C)cc3)C2=O)cc1 | > 100 | > 100 | 97.5 | > 100 | > 100 | > 100 | 0.927 | 4.08 | > 100 | 0.693 | 0.437 | 0.149 | 0.0788 | 0.268 | 0.597 | 3.04 | – | – | – | –
4 | N#CC(C(=O)/C(=N/NC(=O)c1ccccc1O)C(C#N)c1ccc(Cl)cc1)c1ccc(Cl)cc1 (configuration not stated) | – | 29.1 | 90.5 | 72.8 | 30 | – | – | 86.5 | 33.9 | – | – | – | – | – | – | – | 31.3 | – | – | –
5 | Cc1cccc(NC(=O)CC(=O)N2N=C(N(CCC#N)c3ccc(Cl)cc3)CC2c2ccccc2)c1 (configuration not stated) | > 100 | > 100 | – | > 100 | > 100 | > 100 | > 100 | > 100 | > 100 | – | – | – | – | – | – | – | > 100 | – | – | –
6 | C[N+](C)(C)CC(=O)N/N=C(/Cc1nc2c3c(ccc2[nH]c1=O)C(=O)c1ccccc1C3=O)C(=O)Nc1ccc(Cl)c(Cl)c1 | – | > 100 | > 100 | > 100 | > 100 | > 100 | > 100 | > 100 | > 100 | – | – | – | – | – | – | – | > 100 | – | – | –
7 | C=CCC1([C@H](C)[C@@H](OC(C)=O)c2cc(OC)c(OC)c(OC)c2)C[C@@H](OC)CCC1=O (some centres not stated) | 36 | 38.6 | > 100 | 77.5 | 37 | 34.9 | – | 42.2 | 85.1 | – | – | – | – | – | – | – | 30.8 | – | – | –
8 | Cc1ccc2c(ccc3c[n+]4c5ccccc5ccc4n32)c1 | 8.05 | 10.7 | 6.94 | 13.7 | 2.09 | 2.32 | 2.98 | 2.35 | 4.64 | 1.18 | 0.508 | 0.34 | 0.795 | 1.27 | 0.485 | 1.32 | – | 1.76 | 0.663 | –
9 | O=C(O)c1ccc([Se][Se]c2ccc(C(=O)O)cc2)cc1 | 88.3 | > 100 | – | > 100 | 68.4 | 33.4 | > 100 | 74 | 49.1 | – | – | – | – | – | – | – | 92.1 | – | – | –
10 | CC1(C)SC2C(NC(=O)C(N)c3ccccc3)C(=O)N2C1C(=O)O (configuration not stated) | > 100 | > 100 | – | > 100 | > 100 | > 100 | > 100 | > 100 | – | – | – | – | – | – | – | – | > 100 | – | – | –
11 | Nc1cc2cccc[n+]2c2cc(Cl)ccc12 | 62.7 | – | – | – | 53.2 | 45.9 | 37.7 | – | 38.9 | 21.5 | 26.2 | 7.89 | 18.7 | 16.8 | 11.8 | 8.44 | 83.2 | – | 56.3 | 14.6
12 | CCCCCCCCCCCCOC(=S)NCCCC | 95.1 | 35.5 | 71.1 | – | 41.9 | 40.6 | 34 | – | 99.7 | – | – | – | – | – | – | – | 48.5 | – | – | –
13 | O=C(CC(=O)CC(O)(C(F)(F)F)C(F)(F)F)CC(O)(C(F)(F)F)C(F)(F)F | > 10 | > 10 | > 10 | > 10 | > 10 | > 10 | – | > 10 | > 10 | – | – | – | – | – | – | – | > 10 | – | – | –
14 | Cc1c(C(=O)/C=C/c2csc3ccccc23)[n+](=O)c2ccccc2n1[O-] | 3.34 | 2.81 | 4.95 | 5.25 | 2.9 | 3.65 | 3.38 | – | 4.83 | 1.38 | 1.49 | 1.56 | 1.77 | 1.91 | – | 1.98 | 3.12 | 1.79 | 2.13 | 1.59
15 | COc1ccc(-c2ccc(/C=N/n3c(COc4ccc(Cl)cc4Cl)n[nH]c3=S)o2)c([N+](=O)[O-])c1 | – | 97.6 | > 100 | > 100 | 33 | > 100 | – | > 100 | 72.7 | – | 30.7 | 15.9 | 34.7 | – | 32.9 | 28.9 | 49.7 | 23.6 | 19.5 | 25.7
